Source: US12285403B2, “A2-73 as a therapeutic for insomnia, anxiety and agitation” (Anavex Life Sciences Corp., priority 2016, dated 2025)

How the values were obtained:
Format in all cases: in vivo, human
[1] = system: mild-to-moderate AD patients; test: Hamilton Depression Rating Scale (HAM-D), open-label Phase 2a clinical trial; conditions: for Insomnia HAM-D Q5 Middle Insomnia, Mean ± SD / Insomnia HAM-D Q6 Late Insomnia, Mean ± SD / Insomnia HAM-D Q4 Initial Insomnia, Mean ± SD: score 0-2; for Insomnia HAM-D Q5 Middle Insomnia, Mean ± SD: baseline 1.5 ± 0.7; for Insomnia HAM-D Q6 Late Insomnia, Mean ± SD: baseline 1.6 ± 0.5; for Insomnia HAM-D Q4 Initial Insomnia, Mean ± SD: baseline 2 ± 0.0
Experimental: Efficacy data is presented through 31 week from the randomized (into different treatment regimens) open-label study with ANAVEX 2-73 oral daily dosing ranging from 10 mg to 50 mg. The data establish a method for treating insomnia, anxiety, or agitation in a subject. Efficacy extends to daily doses of up to about 100 mg of […], A1-41 or A19-144. Note is made of doses of A2-73, A1-41 or A19-144 of about 10 mg to about 30 mg, about 20 mg to about 40 mg, about 50 mg to about 80 mg. Oral dosing daily or every other day is contemplated.
This is consistent with Table 1 showing a reduction in insomnia, anxiety, and other symptoms.
The data of Table 1 is from an open-label, clinical trial, performed on a group of 30 mild-to-moderate AD patients (MMSE range 16-23, 40% female) on donepezil treatment, with ANAVEX 2-73.

[2] = Systolic blood pressure monitored over the first 25 days of dosing in AD subjects
Experimental: An additional benefit of the therapeutic regimen disclosed herein is the beneficial control of systolic blood pressure in AD subjects taking daily oral dosages of A2-73 of from about 10 mg to about 50 mg. Systolic blood pressure was monitored over the first 25 days of dosing. A1-41 and A19-144 are similarly useful therapeutics.

[3] = system: mild-to-moderate Alzheimer's disease patients; test: ADCS-ADL (Activities of Daily Living), Phase 2a study; conditions: for ADCS-ADL scores: through week 31, oral daily 10 mg to 50 mg, FIG. 2
Excerpt: Although the present invention calls for methods of treating insomnia, some primary sleep disorders, such as circadian rhythm disorders, advanced sleep phase disorder also termed sleep onset insomnia, mid-nocturnal insomnia, early morning insomnia, hyper insomnia, trouble staying asleep, jet lag, narcolepsy, non-24-hour sleep-wake syndrome, include insomnia as a component of the disorder. Thus, the term “insomnia” should be understood to also include the insomnia component of these disorders. • Aβ—Amyloid beta is abbreviated as Aβ. • AD—Alzheimer's disease is abbreviated as AD. • ADCS-ADL—Alzheimer's Disease Cooperative Study Activities of Daily Living Inventory is abbreviated as ADCS-ADL. • Cogstate tasks—Cogstate tasks refers to Cogstate cognitive tests (Cogstate Alzheimer's Battery) using visual and verbal stimuli to ensure assessment. These tests assess cognitive function in adults with mild cognitive impairment and clinically-diagnosed Alzheimer's disease. The test is culture-neutral and not limited by a subject or participant's level of education. A Cogstate battery comprises a number of individual tests—each designed to test a specific area of cognition. When a number of these individual tests are put together to form a test battery, a more complete picture of a person's cognitive state can be defined. • DPZ—Donepezil is abbreviated as DPZ. • EEG/ERP—EEG/ERP is a reference to ERP measured via EEG. • ERP—Event-related potential is abbreviated as ERP. • HAM-D—Hamilton Depression Rating Scale is abbreviated as HAM-D. • MCI—Mild cognitive impairment is abbreviated as MCI. • MMSE—MMSE refers to the Mini-Mental State Examination (MMSE) or Folstein test. This test is a 30-point questionnaire that is used extensively in clinical and research settings to measure cognitive impairment. • SWS—Slow-wave sleep is abbreviated as SWS. • WASO.—Waking after sleep onset is abbreviated WASO.
Efficacy data is presented through 31 week from the randomized (into different treatment regimens) open-label study with ANAVEX 2-73 oral daily dosing ranging from 10 mg to 50 mg. […]

[4] = 30 mild-to-moderate AD patients on donepezil, open-label
[5] = 30 mild-to-moderate AD patients on donepezil, open-label, total 28 improvements

SMILES: CN(C)CC1CCOC1(c1ccccc1)c1ccccc1.Cl (stereo not shown) [A2-73, tetrahydro-N,N-dimethyl-2,2-diphenyl-3-furanmethanamine hydrochloride]
- Scored Improvement Count, improved item of HAM-D: Agitation [1, 4]: 4
- Scored Improvement Count, improved item of HAM-D: Anxiety (psychic and somatic) [1, 4]: 5
- Scored Improvement Count, improved item of HAM-D: Depressed [1, 4]: 4
- Scored Improvement Count, improved item of HAM-D: Guilt [1, 4]: 1
- Scored Improvement Count, improved item of HAM-D: Hypochondriasis [1, 4]: 2
- Scored Improvement Count, improved item of HAM-D: Insight [1, 4]: 3
- Scored Improvement Count, improved item of HAM-D: Insomnia [1, 4]: 8
- Scored Improvement Count, improved item of HAM-D: Loss of libido or other genital symptoms [1, 4]: 2
- Scored Improvement Count, improved item of HAM-D: Work and activities [1, 4]: 6
- Scored Improvement in [%], improved item of HAM-D: Agitation [1, 5]: 14%
- Scored Improvement in [%], improved item of HAM-D: Anxiety (psychic and somatic) [1, 5]: 18%
- Scored Improvement in [%], improved item of HAM-D: Depressed [1, 5]: 14%
- Scored Improvement in [%], improved item of HAM-D: Guilt [1, 5]: 4%
- Scored Improvement in [%], improved item of HAM-D: Hypochondriasis [1, 5]: 7%
- Scored Improvement in [%], improved item of HAM-D: Insight [1, 5]: 11%
- Scored Improvement in [%], improved item of HAM-D: Insomnia [1, 5]: 29%
- Scored Improvement in [%], improved item of HAM-D: Loss of libido or other genital symptoms [1, 5]: 7%
- Scored Improvement in [%], improved item of HAM-D: Work and activities [1, 5]: 21%
- Insomnia HAM-D Q5 Middle Insomnia, Mean ± SD ([1]; Day 13): 1.0 ± 1.4
- Insomnia HAM-D Q6 Late Insomnia, Mean ± SD ([1]; Day 13): 0.0 ± 0.0
- Insomnia HAM-D Q4 Initial Insomnia, Mean ± SD ([1]; Day 13): 2 ± 0.0
- Insomnia HAM-D Q5 Middle Insomnia, Mean ± SD ([1]; Week 12/26): 0.0 ± 0.0
- Insomnia HAM-D Q6 Late Insomnia, Mean ± SD ([1]; Week 12/26): 0.0 ± 0.0
- Insomnia HAM-D Q4 Initial Insomnia, Mean ± SD ([1]; Week 12/26): 0.0 ± 0.0
- Overall Hamilton Depression Rating Scale (HAM-D) ([1]; after 31 weeks of dosing, FIG. 7): reduction
- Changes in other behavioral items (HAM-D) ([1]; baseline to week 12): not statistically significant
- Subjective reports of insomnia (sleep items of HAM-D) ([1]; baseline to week 12, t=4.2, p<0.05, 30 AD patients, listed as ANAVEX 2-73, hydrochloride): marked insomnia improvements
- Scored Improvement Count, improved items of HAM-D: Total ([1]; sum over all improved HAM-D items): 28
- Change in mean systolic BP, baseline to Day 25 ([2]; Hypertension Stage 1: 140-159 mm Hg): −16 mm Hg
- Day 25 Mean systolic BP ±SD ([2]; Hypertension Stage 1: 140-159 mm Hg, baseline 145 ± 3): 129 ± 12 mm Hg
- Change in mean systolic BP, baseline to Day 25 ([2]; Hypertension Stage 2: 160-179 mm Hg): −22 mm Hg
- Day 25 Mean systolic BP ±SD ([2]; Hypertension Stage 2: 160-179 mm Hg, baseline 170 ± 8): 148 ± 19 mm Hg
- Change in mean systolic BP, baseline to Day 25 ([2]; Hypertensive crisis >180 mm Hg): −27 mm Hg
- Day 25 Mean systolic BP ±SD ([2]; Hypertensive crisis >180 mm Hg, baseline 185 ± 0): 159 ± 43 mm Hg
- Change in mean systolic BP, baseline to Day 25 ([2]; Pre Hypertension 120-139 mm Hg): −9 mm Hg
- Day 25 Mean systolic BP ±SD ([2]; Pre Hypertension 120-139 mm Hg, baseline 131 ± 6): 122 ± 15 mm Hg
- Change in mean systolic BP, baseline to Day 25 ([2]; baseline classification <120 mm Hg): 8 mm Hg
- Day 25 Mean systolic BP ±SD ([2]; baseline classification <120 mm Hg, baseline 115 ± 2, oral daily 10-50 mg): 123 ± 11 mm Hg
- Systolic blood pressure in subjects with high-normal systolic blood pressure ([2]; first 25 days of dosing): rose
- Systolic blood pressure in hypertensive subjects ([2]; first 25 days of dosing, greater reduction for increasingly hypertensive subjects): significantly reduced
- ADCS-ADL score, ANAVEX 2-73 alone vs ANAVEX 2-73 with DPZ (donepezil) ([3]; over 31 weeks, exploratory analysis, FIG. 6): no notable difference
- ADCS-ADL scores ([3]; hydrochloride): maintained at a constant level
- ADCS-ADL scores ([3]; listed as ANAVEX 2-73, hydrochloride): preserves average MMSE and ADCS-ADL scores
